18 compounds from patent US20250122183A1 (Pfizer Inc., priority 2023, published 2025) can be followed below.

One assay deals with KAT6A Full length enzyme (Homo sapiens (Human), UniProt Q92794). Kind of assay: KAT6A assay (SAMDI-MS acetylation of H3 1-21 peptide). The assay is classed as biochemical. As to conditions: replicate number in parentheses.
Assay [1] concerns the target KAT7+JADE1+EAF6+ING5 4 protein complex (Homo sapiens (Human), UniProt O95251). The assay is described as follows: KAT7 JADE1 assay (SAMDI-MS acetylation of H3 1-21 peptide). The assay is classed as biochemical. Conditions: replicate number in parentheses.
[2] abbreviates: Morrison equation fit, read-out: KAT6A Ki (nM) (replicate number).
The mark [3] stands for this setting: Morrison equation fit, read-out: KAT7 JADE1 Ki (nM) (replicate number).
Where [4] appears, read: read-out: KAT6A Ki (nM) (replicate).
Setting [5] is: read-out: KAT7 JADE1 Ki (nM) (replicate).

Broadly, the Ki is a dissociation constant, usually derived from enzyme kinetics or from competition with a known ligand.

Where two headings read alike, the source gives them in different places. A value given as a limit tells only on which side of the number the result lay.

Chain of KAT6A Full length enzyme (Q92794 other isoform, or with tags, fused parts or gaps): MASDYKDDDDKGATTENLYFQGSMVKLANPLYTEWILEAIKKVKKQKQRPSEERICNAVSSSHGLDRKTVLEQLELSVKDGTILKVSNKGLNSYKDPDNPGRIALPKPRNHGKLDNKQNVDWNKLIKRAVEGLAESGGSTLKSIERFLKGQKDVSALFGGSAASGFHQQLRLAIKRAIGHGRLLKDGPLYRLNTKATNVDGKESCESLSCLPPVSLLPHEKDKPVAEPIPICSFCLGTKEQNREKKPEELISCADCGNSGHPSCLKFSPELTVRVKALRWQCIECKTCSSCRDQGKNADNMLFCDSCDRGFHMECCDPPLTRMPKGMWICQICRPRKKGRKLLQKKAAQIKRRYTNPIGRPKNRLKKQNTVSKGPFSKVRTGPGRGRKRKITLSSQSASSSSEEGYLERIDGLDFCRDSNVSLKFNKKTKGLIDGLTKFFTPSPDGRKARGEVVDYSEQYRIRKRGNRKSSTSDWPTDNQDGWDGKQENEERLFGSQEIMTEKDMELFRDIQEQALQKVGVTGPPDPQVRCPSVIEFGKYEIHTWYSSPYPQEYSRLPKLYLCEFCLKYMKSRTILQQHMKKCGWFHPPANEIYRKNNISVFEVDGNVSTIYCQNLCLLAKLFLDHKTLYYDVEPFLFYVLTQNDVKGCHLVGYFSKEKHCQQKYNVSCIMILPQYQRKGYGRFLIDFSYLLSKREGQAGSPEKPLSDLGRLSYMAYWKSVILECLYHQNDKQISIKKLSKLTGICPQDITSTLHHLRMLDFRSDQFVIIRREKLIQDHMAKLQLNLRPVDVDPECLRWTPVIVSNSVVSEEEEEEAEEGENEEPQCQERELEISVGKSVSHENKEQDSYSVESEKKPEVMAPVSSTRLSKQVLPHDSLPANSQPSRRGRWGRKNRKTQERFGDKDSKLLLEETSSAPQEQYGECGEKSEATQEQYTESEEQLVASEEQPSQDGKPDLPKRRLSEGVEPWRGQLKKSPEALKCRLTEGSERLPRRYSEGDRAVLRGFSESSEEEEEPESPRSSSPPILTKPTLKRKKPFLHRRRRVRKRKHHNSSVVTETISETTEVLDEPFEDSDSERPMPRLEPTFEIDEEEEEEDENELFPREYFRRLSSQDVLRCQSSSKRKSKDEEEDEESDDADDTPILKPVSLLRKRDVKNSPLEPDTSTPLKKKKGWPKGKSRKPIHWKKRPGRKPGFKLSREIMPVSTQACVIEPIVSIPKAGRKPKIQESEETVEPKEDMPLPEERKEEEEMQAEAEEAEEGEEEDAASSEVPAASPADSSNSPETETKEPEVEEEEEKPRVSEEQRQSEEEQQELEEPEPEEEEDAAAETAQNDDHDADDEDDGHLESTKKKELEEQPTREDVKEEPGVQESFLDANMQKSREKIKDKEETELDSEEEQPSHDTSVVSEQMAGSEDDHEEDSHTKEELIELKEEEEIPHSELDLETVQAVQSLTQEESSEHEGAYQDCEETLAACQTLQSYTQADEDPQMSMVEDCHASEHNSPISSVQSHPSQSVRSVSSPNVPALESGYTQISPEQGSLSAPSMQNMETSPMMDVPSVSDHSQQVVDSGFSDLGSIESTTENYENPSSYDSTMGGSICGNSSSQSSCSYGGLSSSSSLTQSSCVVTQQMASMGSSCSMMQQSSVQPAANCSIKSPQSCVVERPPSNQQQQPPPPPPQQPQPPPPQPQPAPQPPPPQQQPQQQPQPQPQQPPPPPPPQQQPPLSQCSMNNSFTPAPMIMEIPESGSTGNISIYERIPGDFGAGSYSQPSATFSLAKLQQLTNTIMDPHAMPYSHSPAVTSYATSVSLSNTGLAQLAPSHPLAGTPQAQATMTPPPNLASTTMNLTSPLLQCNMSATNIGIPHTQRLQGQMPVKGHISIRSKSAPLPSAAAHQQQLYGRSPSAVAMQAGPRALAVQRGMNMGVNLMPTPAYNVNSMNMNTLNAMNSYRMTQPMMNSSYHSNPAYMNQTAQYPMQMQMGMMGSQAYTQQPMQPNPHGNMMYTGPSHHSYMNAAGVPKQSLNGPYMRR

Regarding `COc1cc2c(NS(=O)(=O)c3c(OC)cc(C4C[C@H](F)CN4C)cc3OC)noc2cc1Nc1cc(C2CC2)n[nH]1` (stereo partly drawn) [Example 181, N-{6-[(3-cyclopropyl-1 H-pyrazol-5-yl)amino]-5-methoxy-1,2-benzoxazol-3-yl}-4-[(4S)-4-fluoro-1-methylpyrrolidin-2-yl]-2,6-dimethoxybenzene-1-sulfonamide], the Ki at KAT6A Full length enzyme (setting [2]) was 2 nM; in assay [1] (setting [3]) it was 6.2 nM.

As for `COc1cc2c(NS(=O)(=O)c3c(OC)cc(-c4ccc(C)nn4)cc3OC)noc2cc1Nc1cc(C2CC2)n[nH]1` [Example 219, N-{6-[(3-cyclopropyl-1H-pyrazol-5-yl)amino]-5-methoxy-1,2-benzoxazol-3-yl}-2,6-dimethoxy-4-(6-methylpyridazin-3-yl)benzene-1-sulfonamide], the results for the Ki (on KAT6A Full length enzyme (setting [2]); in assay [1] (setting [3])) were 0.2 nM and 1.9 nM, respectively.

As to `COc1cc2c(NS(=O)(=O)c3c(OC)cc(C4CCCN4CC(F)F)cc3OC)noc2cc1Nc1cc(C2CC2)n[nH]1` (single isomer, unassigned) [Example 165, N-{6-[(3-cyclopropyl-1H-pyrazol-5-yl)amino]-5-methoxy-1,2-benzoxazol-3-yl}-4-[1-(2,2-difluoroethyl)pyrrolidin-2-yl]-2,6-dimethoxybenzene-1-sulfonamide], the Ki at KAT6A Full length enzyme (setting [2]) was found to be 1.4 nM; in assay [1] (setting [3]), 5 nM.

With `COc1cccc(OC)c1S(=O)(=O)Nc1noc2cc(N[C@@H]3CCOC3)cc(OC)c12` [Example 13, 2,6-dimethoxy-N-(4-methoxy-6-{[(3R)-oxolan-3-yl]amino}-1,2-benzoxazol-3-yl)benzene-1-sulfonamide], the Ki is 25.5 nM on KAT6A Full length enzyme (setting [2]) and more than 2340 nM in assay [1] (setting [3]).

Turning to `COc1cc2c(NS(=O)(=O)c3c(OC)cc(C4CCCOC4)cc3OC)noc2cc1Nc1cc(C2CC2)n[nH]1` (single isomer, unassigned) [Example 268, N-{6-[(3-cyclopropyl-1 H-pyrazol-5-yl)amino]-5-methoxy-1,2-benzoxazol-3-yl}-2,6-dimethoxy-4-(oxan-3-yl)benzene-1-sulfonamide], the Ki at KAT6A Full length enzyme (setting [4]) stood at 1.2 nM; in assay [1] (setting [5]) it was 8.8 nM.

`COc1cc2c(NS(=O)(=O)c3c(OC)cc(CN4CCC[C@H](F)C4)cc3OC)noc2cc1Nc1cc(C2CC2)n[nH]1` (single isomer, unassigned) [Example 197, N-{6-[(3-cyclopropyl-1H-pyrazol-5-yl)amino]-5-methoxy-1,2-benzoxazol-3-yl}-4-[(3-fluoropiperidin-1-yl)methyl]-2,6-dimethoxybenzene-1-sulfonamide]: the Ki at KAT6A Full length enzyme (setting [2]) was 1.3 nM; in assay [1] (setting [3]), 7.3 nM.

For the compound `CCN1CCCC1c1cc(OC)c(S(=O)(=O)Nc2noc3cc(Nc4cc(C5CC5)[nH]n4)c(OC)cc23)c(OC)c1` (single isomer, unassigned) [Example 190, N-{6-[(5-cyclopropyl-1 H-pyrazol-3-yl)amino]-5-methoxy-1,2-benzoxazol-3-yl}-4-(1-ethylpyrrolidin-2-yl)-2,6-dimethoxybenzene-1-sulfonamide], the Ki worked out at 5.6 nM on KAT6A Full length enzyme (setting [2]) and 54.5 nM in assay [1] (setting [3]).

Regarding `COc1cc2c(NS(=O)(=O)c3c(OC)cc(C4CCCCO4)cc3OC)noc2cc1Nc1cc(C2CC2)n[nH]1` (single isomer, unassigned) [Example 142, N-{6-[(3-cyclopropyl-1 H-pyrazol-5-yl)amino]-5-methoxy-1,2-benzoxazol-3-yl}-2,6-dimethoxy-4-(oxan-2-yl)benzene-1-sulfonamide], the results for the Ki (at KAT6A Full length enzyme (setting [2]); in assay [1] (setting [3])) were 0.7 nM and 6.7 nM, respectively.

Consider `COc1cc2c(NS(=O)(=O)c3c(OC)cccc3OC)noc2cc1Nc1cc(C(C)C)nn1C` [Example 51, 2,6-dimethoxy-N-(5-methoxy-6-{[1-methyl-3-(propan-2-yl)-1H-pyrazol-5-yl]amino}-1,2-benzoxazol-3-yl)benzene-1-sulfonamide], for which the figures for the Ki (on KAT6A Full length enzyme (setting [2]); in assay [1] (setting [3])) were more than 377 nM and more than 4990 nM, respectively.

Turning to `COc1cc2c(NS(=O)(=O)c3c(OC)cc(C4CCN(C)C4)cc3OC)noc2cc1Nc1cc(C2CC2)n[nH]1` (single isomer, unassigned) [Example 147, N-{6-[(3-cyclopropyl-1 H-pyrazol-5-yl)amino]-5-methoxy-1,2-benzoxazol-3-yl}-2,6-dimethoxy-4-(1-methylpyrrolidin-3-yl)benzene-1-sulfonamide], the figures for the Ki (at KAT6A Full length enzyme (setting [2]); in assay [1] (setting [3])) were 1.6 nM and 12.1 nM, respectively.

For `COc1cc2c(NS(=O)(=O)c3c(OC)cccc3OC)noc2cc1Nc1cc(C(=O)O)n[nH]1` [Example 54, 5-({3-[(2,6-dimethoxybenzene-1-sulfonyl)amino]-5-methoxy-1,2-benzoxazol-6-yl}amino)-1H-pyrazole-3-carboxylic acid], the Ki on KAT6A Full length enzyme (setting [2]) was 2 nM; in assay [1] (setting [3]) it was more than 2340 nM.

Regarding `COc1cc2c(NS(=O)(=O)c3c(OC)cc(N4C(=O)CCC4C)cc3OC)noc2cc1Nc1cc(C2CC2)n[nH]1` (single isomer, unassigned) [Example 245, N-{6-[(3-cyclopropyl-1 H-pyrazol-5-yl)amino]-5-methoxy-1,2-benzoxazol-3-yl}-2,6-dimethoxy-4-(2-methyl-5-oxopyrrolidin-1-yl)benzene-1-sulfonamide], the inhibition constant Ki on KAT6A Full length enzyme (setting [2]) came to 0.7 nM; in assay [1] (setting [3]) it was 3.6 nM.

With `COc1cc2c(NS(=O)(=O)c3c(OC)cc(N4CC(F)C4)cc3OC)noc2cc1Nc1cc(C2CC2)n[nH]1` [Example 252, N-{6-[(3-cyclopropyl-1H-pyrazol-5-yl)amino]-5-methoxy-1,2-benzoxazol-3-yl}-4-(3-fluoroazetidin-1-yl)-2,6-dimethoxybenzene-1-sulfonamide], the Ki at KAT6A Full length enzyme (setting [4]) came to 0.8 nM; in assay [1] (setting [5]), 5.7 nM.

Take `COc1cc2c(NS(=O)(=O)c3c(OC)cc(C4CCCN([C@@H]5CCOC5)C4)cc3OC)noc2cc1Nc1cc(C2CC2)n[nH]1` (single isomer, unassigned) [Example 158]: the Ki at KAT6A Full length enzyme (setting [2]) was 1.2 nM; in assay [1] (setting [3]), 8.7 nM.

In the case of `CCN1CCCCC1c1cc(OC)c(S(=O)(=O)Nc2noc3cc(Nc4cc(C5CC5)n[nH]4)c(OC)cc23)c(OC)c1` (single isomer, unassigned) [Example 174, N-{6-[(3-cyclopropyl-1 H-pyrazol-5-yl)amino]-5-methoxy-1,2-benzoxazol-3-yl}-4-(1-ethylpiperidin-2-yl)-2,6-dimethoxybenzene-1-sulfonamide], the Ki at KAT6A Full length enzyme (setting [2]) amounted to 4.4 nM; in assay [1] (setting [3]), 27.3 nM.

Regarding `COc1cc2c(NS(=O)(=O)c3c(OC)cc(CN4CCCC4(C)C)cc3OC)noc2cc1Nc1cc(C2CC2)n[nH]1` [Example 206, N-{6-[(3-cyclopropyl-1H-pyrazol-5-yl)amino]-5-methoxy-1,2-benzoxazol-3-yl}-4-[(2,2-dimethylpyrrolidin-1-yl)methyl]-2,6-dimethoxybenzene-1-sulfonamide], the figures for the Ki (at KAT6A Full length enzyme (setting [2]); in assay [1] (setting [3])) were 4.4 nM and 28.8 nM, respectively.

Turning to `COc1cc2c(NS(=O)(=O)c3c(OC)cc(-c4ncc(N(C)C)cn4)cc3OC)noc2cc1Nc1cc(C2CC2)n[nH]1` [Example 218, N-{6-[(3-cyclopropyl-1H-pyrazol-5-yl)amino]-5-methoxy-1,2-benzoxazol-3-yl}-4-[5-(dimethylamino)pyrimidin-2-yl]-2,6-dimethoxybenzene-1-sulfonamide], the Ki at KAT6A Full length enzyme (setting [2]) came to 0.1 nM; in assay [1] (setting [3]) it was 0.4 nM.

Turning to `COc1cc2c(NS(=O)(=O)c3c(OC)cccc3OC)noc2cc1Nc1cc(C)nn1C` [Example 38, N-{6-[(1,3-dimethyl-1H-pyrazol-5-yl)amino]-5-methoxy-1,2-benzoxazol-3-yl}-2,6-dimethoxybenzene-1-sulfonamide], the Ki on KAT6A Full length enzyme (setting [2]) is 60.4 nM; in assay [1] (setting [3]), more than 12500 nM.
